Assay results taken from the NIST ThermoML archive (doi:10.1016/j.jct.2016.02.009).

Assay: molar heat capacity at constant pressure
Conditions: 101.33 kPa, Small (less than 1 g) adiabatic calorimetry

CCCCCCCCCCCCCCCCn1cc[n+](C)c1.O=S(=O)([N-]S(=O)(=O)C(F)(F)F)C(F)(F)F
Conditions	molar heat capacity at constant pressure [J/K/mol]
240 K, Crystal 2	635.6
240.65 K, Crystal 2	637.6
242.87 K, Crystal 2	643.5
245.08 K, Crystal 2	650
247.28 K, Crystal 2	657
249.47 K, Crystal 2	663.5
250 K, Crystal 2	665.4
251.67 K, Crystal 2	671.1
253.85 K, Crystal 2	678.2
256.03 K, Crystal 2	685.8
258.19 K, Crystal 2	693.5
260 K, Crystal 2	700.6
260.35 K, Crystal 2	701.7
262.5 K, Crystal 2	710.5
264.64 K, Crystal 2	719.9
266.77 K, Crystal 2	729.9
268.89 K, Crystal 2	740.5
270 K, Crystal 2	745.5
271 K, Crystal 2	751.1
273.1 K, Crystal 2	761.1
275.18 K, Crystal 2	773.4
277.25 K, Crystal 2	786.9
279.3 K, Crystal 2	801
280 K, Crystal 2	806.6
281.34 K, Crystal 2	816.9
283.37 K, Crystal 2	834.5
285.38 K, Crystal 2	853.3
287.36 K, Crystal 2	875.7
289.32 K, Crystal 2	901.5
290 K, Crystal 2	909.7
291.26 K, Crystal 2	930.9
293.07 K, Crystal 2	958.5
293.16 K, Crystal 2	965
293.61 K, Crystal 2	968.5
294.12 K, Crystal 2	978.5
294.63 K, Crystal 2	990.3
295.02 K, Crystal 2	1004
295.14 K, Crystal 2	1002
295.64 K, Crystal 2	1014
296.14 K, Crystal 2	1027
296.64 K, Crystal 2	1039
296.85 K, Crystal 2	1050
297.14 K, Crystal 2	1053
297.63 K, Crystal 2	1068
298.11 K, Crystal 2	1082
298.15 K, Crystal 2	1084
298.6 K, Crystal 2	1098
298.63 K, Crystal 2	1103
299.08 K, Crystal 2	1113
299.55 K, Crystal 2	1129
300 K, Crystal 2	1146
300.03 K, Crystal 2	1146
300.36 K, Crystal 2	1161
300.49 K, Crystal 2	1161
300.96 K, Crystal 2	1177
301.42 K, Crystal 2	1193
301.88 K, Crystal 2	1207
302.1 K, Crystal 2	1219
302.34 K, Crystal 2	1222
302.79 K, Crystal 2	1235
303.24 K, Crystal 2	1248
303.69 K, Crystal 2	1253
303.84 K, Crystal 2	1262
304.13 K, Crystal 2	1267
304.58 K, Crystal 2	1271
305.02 K, Crystal 2	1273
305.47 K, Crystal 2	1274
305.5 K, Crystal 1	1274
305.5 K, Crystal 2	1274
305.56 K, Crystal 1	1278
305.91 K, Crystal 1	1275
306.36 K, Crystal 1	1271
306.8 K, Crystal 1	1269
307.24 K, Crystal 1	1268
307.28 K, Crystal 1	1272
307.69 K, Crystal 1	1266
308.14 K, Crystal 1	1261
308.58 K, Crystal 1	1257
309.01 K, Crystal 1	1254
309.03 K, Crystal 1	1251
309.48 K, Crystal 1	1242
309.93 K, Crystal 1	1229
310 K, Crystal 1	1229
310.39 K, Crystal 1	1187
310.81 K, Crystal 1	1097
310.86 K, Crystal 1	1054
311.36 K, Crystal 1	989.7
311.88 K, Crystal 1	984.4
312.39 K, Crystal 1	986.1
312.73 K, Crystal 1	995.5
312.9 K, Crystal 1	992
313.41 K, Crystal 1	997.9
313.91 K, Crystal 1	1011
314.42 K, Crystal 1	1032
314.68 K, Crystal 1	1051
316.51 K, Crystal 1	1261
319.25 K, Crystal 1	1044
319.25 K, Liquid	972
320 K, Liquid	972
320.76 K, Liquid	972.6
321.02 K, Liquid	972.6
322.55 K, Liquid	974.4
322.92 K, Liquid	974.4
324.34 K, Liquid	976.2
324.82 K, Liquid	975.6
326.13 K, Liquid	977.9
326.72 K, Liquid	977.3
327.92 K, Liquid	978.5
328.62 K, Liquid	979.7
329.71 K, Liquid	980.3
330 K, Liquid	981
330.52 K, Liquid	981.4
331.5 K, Liquid	982
332.43 K, Liquid	982.6
333.29 K, Liquid	983.8
334.33 K, Liquid	984.4
335.08 K, Liquid	985.6
336.23 K, Liquid	986.1
336.87 K, Liquid	986.7
338.13 K, Liquid	988.5
338.66 K, Liquid	989.1
340 K, Liquid	990
340.03 K, Liquid	990.3
340.45 K, Liquid	990.3
341.93 K, Liquid	991.4
342.24 K, Liquid	992
343.84 K, Liquid	993.8
344.04 K, Liquid	993.2
345.74 K, Liquid	995
345.83 K, Liquid	995
347.62 K, Liquid	997.3
347.64 K, Liquid	996.7
349.41 K, Liquid	998.5
349.55 K, Liquid	999.7
350 K, Liquid	1000
351.2 K, Liquid	1000
351.45 K, Liquid	1001
353 K, Liquid	1003
353.35 K, Liquid	1003
354.79 K, Liquid	1004
355.25 K, Liquid	1006
356.58 K, Liquid	1007
357.16 K, Liquid	1007
358.37 K, Liquid	1009
359.06 K, Liquid	1009
360 K, Liquid	1010
360.16 K, Liquid	1011
360.96 K, Liquid	1011
361.95 K, Liquid	1013
362.86 K, Liquid	1013
363.74 K, Liquid	1014
364.75 K, Liquid	1015
365.52 K, Liquid	1016
366.65 K, Liquid	1018
367.31 K, Liquid	1018
368.55 K, Liquid	1020
370 K, Liquid	1022
